The values that follow come from patent US4873342A, “Dipeptide derivative and synthesis and use thereof” (Suntory Limited, priority 1985, dated 1989).

Series [1] concerns Experimental Amnesia caused in Rats by Scopolamine. Nature of the series: Preventive effect against experimental amnesia caused in rats by scopolamine (passive avoidance, intraperitoneal administration). The format is in vivo, Wister male rats. As to conditions: for No. of amnesic rats/No. of rats tested / Percentage amnesia / Avoidance time After 24 hrs. / Avoidance time After 48 hrs.: i.p., scopolamine 3 mg/kg i.p. The protocol:
Several of the anti-prolyl endopeptidase compounds according to the present invention were checked for their ability to prevent the inhibition of long-term memory fixation by scopolamine. […] One hour after the administration, electric shocks were applied to the rats so that they would acquire passive avoidance learning. Immediately thereafter, scopolamine was administered intraperitoneally to each rat in an amount of 3 mg per kg of body weight.
The results of the test were assessed both 24 hours and 48 hours after the administration of scopolamine. The number of amnesic rats and of sound rats was counted for each of the control group (rats to which the test compounds were not administered but to which only scopolamine and physiological saline were administered intraperitoneally) and the treated group (rats to which both the test compound and scopolamine were administered).

The next series concerns the target prolyl endopeptidase (Elizabethkingia meningoseptica, UniProt P27028). Nature of the series: Measurement of anti-prolyl endopeptidase activity (decomposition of Z-glycyl-prolyl-β-naphthylamide). The class given is biochemical. Particulars: substrate Z-glycyl-proline-β-naphthylamide, phosphate buffer pH 7.0. The procedure: The method of Yoshimoto and Tsuru (T. Yoshimoto and D. Tsuru, Agr. Biol. Chem. 42, 2417, 1978) was used to measure the anti-prolyl endopeptidase activities of several compounds according to the present invention. A mixture of 0.0025M Z--glycyl--proline--β--naphthylamide (0.25 ml), 0.1M phosphate buffer (pH 7.0; 0.99 ml) and a solution of a particular anti-prolyl endopeptidase compound (0.01 ml) was incubated in a test tube at 37° C. for 3 minutes. Thereafter […] of a solution of prolyl endopeptidase (0.2 U/ml) was added and the mixture was heated at 35° C. for 10 minutes. After the reaction, 2.0 ml of Triton x-100 in 1M acetate buffer (pH 4.0) was added to the reaction mixture until the final concentration of the surfactant was 10%. The mixture was left at a room temperature for 15 minutes and the absorbance (a) at 410 nm was measured.
A sample for a blind test was prepared by using the buffer solely in place of the anti-prolyl endopeptidase compound and its absorbance (b) was also measured. The percent inhibition of prolyl endopeptidase was calculated by the formula: [(b-a)/b]×100, and the amount of a specific compound needed to achieve 50% inhibition (IC50) was determined.

The subject of another series is CDF-1 strain male mice. Description: Acute toxicity test in mice. The class given is in vivo. Particulars: i.p. in DMSO, five mice per group, observed 24 and 48 hours after administration. The protocol:
The compounds of the present invention were checked for their acute toxicity in CDF-1 strain male mice (body weight: 27.2 to 30.1 g) purchased from Awazu Laboratory Animals Co., Ltd.
Test samples were prepared by dissolving the respective compounds in DMSO, and a portion (0.1 ml) of the so conditioned test sample was administered intraperitoneally to each of the mice used. Each of the treated groups consisted of five mice. After 24 hours and 48 hours had passed from the time of administration, respectively, the mice were observed.

The subject of the next series is Male mice of ddY-strain. Nature of the series: Anti-hypoxia effect (survival time at 180 mmHg). The format is in vivo. As to conditions: for No. of survival/used, Drug / Survival time, Drug (Mean ± S.E.): mice, 180 mmHg. The protocol:
Male mice of ddY-strain weighing 25 to 34 g were allotted to groups consisting of 7 to 10 animals each. Each compound to be tested was suspended in physiological saline with 2 to 3 drops of Tween 80® added thereto, and administered intraperitoneally at the rate of 0.1 ml per 10 g of body weight.
Each mouse was put into a 1 l desiccator 30 minutes after the administration, and the pressure in the desiccator was reduced to 180 mmHg by means of a vacuum pump. The period from the start of pressure reduction to the respiratory arrest of the mouse was assumed to be the survival time (minute) of the mouse.
If the mouse survived more than 15 minutes, its survival time was recorded as being 15 minutes. A student's t-test was adopted for the significance analysis.

Peptide text beside a SMILES is read from it. * marks the point of attachment. Hydrocinnamoyl = O=C(CCc1ccccc1)*; PhAc = O=C(Cc1ccccc1)*

prolyl endopeptidase, sequence (P27028 21-705): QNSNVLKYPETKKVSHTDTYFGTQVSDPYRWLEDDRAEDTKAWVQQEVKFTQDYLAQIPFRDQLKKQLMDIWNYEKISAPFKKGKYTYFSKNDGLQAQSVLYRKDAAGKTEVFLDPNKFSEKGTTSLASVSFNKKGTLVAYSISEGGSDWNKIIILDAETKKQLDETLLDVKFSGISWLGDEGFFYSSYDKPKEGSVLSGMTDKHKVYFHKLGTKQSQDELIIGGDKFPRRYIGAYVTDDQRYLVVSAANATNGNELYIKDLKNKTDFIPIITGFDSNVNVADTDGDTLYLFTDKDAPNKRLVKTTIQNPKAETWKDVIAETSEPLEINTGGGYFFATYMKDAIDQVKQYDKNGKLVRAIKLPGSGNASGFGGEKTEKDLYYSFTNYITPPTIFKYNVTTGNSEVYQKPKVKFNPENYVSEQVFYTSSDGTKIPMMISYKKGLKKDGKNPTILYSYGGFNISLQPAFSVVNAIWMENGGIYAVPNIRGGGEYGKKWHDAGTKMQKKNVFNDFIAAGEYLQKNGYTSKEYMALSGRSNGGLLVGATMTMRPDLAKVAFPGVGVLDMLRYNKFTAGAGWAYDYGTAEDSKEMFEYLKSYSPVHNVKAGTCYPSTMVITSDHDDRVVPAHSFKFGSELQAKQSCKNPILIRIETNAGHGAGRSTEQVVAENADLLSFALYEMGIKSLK

Regarding `C[C@H](NC(=O)CCCc1ccccc1)C(=O)N1CCC[C@H]1C=O` [SUAM 1110, N--(4-phenyl)butanoyl--Ala--Pro--CHO], the “anti-amnesic effect (in words)” value in series [1] (0.025 mg/kg administered) was “very strong effects”; in series [1] (0.1 mg/kg administered), “very strong effects”; in series [1] (administration of 1 mg/kg), “did not manifest the desired effect”. The “No. of amnesic rats/No. of rats tested” value is 0/10 in series [1] (250 μg/kg) and 1/10 in series [1] (1 mg/kg). Further, the Percentage amnesia is recorded as 0 in series [1] (250 μg/kg) and 10 in series [1] (1 mg/kg). Further, the “Avoidance time After 24 hrs.” value in series [1] (250 μg/kg) was found to be 300.0 s; in series [1] (1 mg/kg), 272.8 s. Further, the “Avoidance time After 48 hrs.” value came to 300.0 s in series [1] (250 μg/kg) and 271.2 s in series [1] (1 mg/kg).

For `CC(C)CC(NC(=O)CCCc1ccccc1)C(=O)N1CCCC1C=O` (stereo not shown) [SUAM 1115, N--(4-phenyl)butanoyl--Leu--Pro--CHO], the “IC50 (amount needed to achieve 50% inhibition of prolyl endopeptidase)” value against prolyl endopeptidase stood at 0.3 ng/test tube. The entries for the “No. of amnesic rats/No. of rats tested” value in series [1] (25 μg/kg), in series [1] (100 μg/kg) and in series [1] (250 μg/kg) were 0/10, 0/10 and 3/10, respectively. For the same compound, the Percentage amnesia turned out to be 0 in series [1] (25 μg/kg), 0 in series [1] (100 μg/kg) and 30 in series [1] (250 μg/kg). Moreover, the “Avoidance time After 24 hrs.” value came to 300.0 s in series [1] (25 μg/kg), 300.0 s in series [1] (100 μg/kg) and 193.2 s in series [1] (250 μg/kg). Moreover, the “Avoidance time After 48 hrs.” value was found to be 300.0 s in series [1] (25 μg/kg), 300.0 s in series [1] (100 μg/kg) and 217.1 s in series [1] (250 μg/kg). For the same compound, the “anti-amnesic effect (in words)” value in series [1] (0.025 mg/kg administered) was “very strong effects”; in series [1] (0.1 mg/kg administered), “very strong effects”; in series [1] (administration of 1 mg/kg), “did not manifest the desired effect”.

As to `CC(C)[C@H](NC(=O)CCCc1ccccc1)C(=O)N1CCC[C@H]1C=O` [SUAM 1117, N--(4-phenyl)butanoyl--Val--Pro--CHO], the “IC50 (amount needed to achieve 50% inhibition of prolyl endopeptidase)” value on prolyl endopeptidase amounted to 0.2 ng/test tube. The “No. of amnesic rats/No. of rats tested” value in series [1] (25 μg/kg) is reported as 1/10; in series [1] (100 μg/kg), 0/10; in series [1] (250 μg/kg), 4/10; in series [1] (1 mg/kg) it was 6/10. The Percentage amnesia in series [1] (25 μg/kg) amounted to 10; in series [1] (100 μg/kg) it was 0; in series [1] (250 μg/kg) it was 40; in series [1] (1 mg/kg), 60. Besides, the “Avoidance time After 24 hrs.” value in series [1] (25 μg/kg) stood at 300.0 s; in series [1] (100 μg/kg), 300.0 s; in series [1] (250 μg/kg) it was 232.0 s; in series [1] (1 mg/kg), 161.6 s. Besides, the “Avoidance time After 48 hrs.” value was 289.5 s in series [1] (25 μg/kg), 300.0 s in series [1] (100 μg/kg), 194.4 s in series [1] (250 μg/kg) and 125.0 s in series [1] (1 mg/kg). In addition, the “anti-amnesic effect (in words)” value is recorded as “very strong effects” in series [1] (0.025 mg/kg administered), “very strong effects” in series [1] (0.1 mg/kg administered) and “did not manifest the desired effect” in series [1] (administration of 1 mg/kg).

With `O=C[C@@H]1CCCN1C(=O)[C@@H]1CCCN1C(=O)CCCc1ccccc1` [SUAM 1231, N--(4-phenyl)butanoyl--Pro--Pro--CHO], the “IC50 (amount needed to achieve 50% inhibition of prolyl endopeptidase)” value at prolyl endopeptidase is 0.2 ng/test tube. Further, in series [1] (20 μg/kg), the “No. of amnesic rats/No. of rats tested” value is 0/10, the Percentage amnesia amounted to 0 and the “Avoidance time After 24 hrs.” value was found to be 300.0 s. For the same compound, the “anti-amnesic effect (in words)” value in series [1] (at 0.020 mg/kg) is recorded as “strong effect”. Moreover, in the series with CDF-1 strain male mice, the “Average-Dose at which the mice remained sound and showed no sign of intoxication” value is given as 634.6 mg/kg.

Consider `O=C[C@@H]1CCCN1C(=O)[C@H](Cc1ccccc1)NC(=O)CCCc1ccccc1` [SUAM 1234, N--(4-phenyl)butanoyl--Phe--Pro--CHO], for which, on prolyl endopeptidase, the “IC50 (amount needed to achieve 50% inhibition of prolyl endopeptidase)” value was found to be 0.3 ng/test tube. Further, the “Survival time Ratio (Drug/Control)” value in the series with Male mice of ddY-strain (1 mg/kg i.p.) is 1.24; with Male mice of ddY-strain (10 mg/kg i.p.), 1.09. In addition, the “No. of survival/used, Drug” value with Male mice of ddY-strain (1 mg/kg i.p.) and in the series on Male mice of ddY-strain (10 mg/kg i.p.) was 0/7 throughout. Moreover, the “Survival time, Drug (Mean ± S.E.)” value is 2.88 ± 0.17 min with Male mice of ddY-strain (1 mg/kg i.p., control 2.32 ± 0.11, *P < 0.05) and 2.45 min in the series on Male mice of ddY-strain (10 mg/kg i.p., control 2.25 ± 0.15).

In the case of `CCCCC(NC(=O)CCCc1ccccc1)C(=O)N1CCCC1C=O` (stereo not shown) [SUAM 1333, N--(4-phenyl)butanoyl--norLeu--Pro--CHO], the “IC50 (amount needed to achieve 50% inhibition of prolyl endopeptidase)” value against prolyl endopeptidase was 0.4 ng/test tube. Besides, in series [1] (20 μg/kg), the “No. of amnesic rats/No. of rats tested” value was 0/10, the Percentage amnesia is 0 and the “Avoidance time After 24 hrs.” value is 300.0 s. In addition, the “anti-amnesic effect (in words)” value in series [1] (at 0.020 mg/kg) is reported as “strong effect”. Moreover, the “Average-Dose at which the mice remained sound and showed no sign of intoxication” value in the series with CDF-1 strain male mice is given as 707.7 mg/kg.

Take `O=C[C@@H]1CCCN1C(=O)[C@@H]1CCCN1C(=O)Cc1ccccc1` [SUAM 1336, N--(2-phenyl)acetyl--Pro--Pro--CHO] (PhAc-Pro-Pro-aldehyde): the “IC50 (amount needed to achieve 50% inhibition of prolyl endopeptidase)” value against prolyl endopeptidase is 1.0 ng/test tube.

On to `O=C[C@@H]1CCCN1C(=O)[C@@H]1CCCN1C(=O)CCc1ccccc1` [SUAM 1339, N--(3-phenyl)propionyl--Pro--Pro--CHO] (Hydrocinnamoyl-Pro-Pro-aldehyde), for which the “IC50 (amount needed to achieve 50% inhibition of prolyl endopeptidase)” value against prolyl endopeptidase was found to be 0.4 ng/test tube.

For the compound `O=C[C@@H]1CCCN1C(=O)[C@@H]1CCCN1C(=O)CCCCc1ccccc1` [SUAM 1342, N--(5-phenyl)pentanoyl--Pro--Pro--CHO], the “IC50 (amount needed to achieve 50% inhibition of prolyl endopeptidase)” value at prolyl endopeptidase is 0.2 ng/test tube.

With `CSCC[C@H](NC(=O)CCCc1ccccc1)C(=O)N1CCC[C@H]1C=O` [SUAM 1345, N--(4-phenyl)butanoyl--Met--Pro--CHO], the “IC50 (amount needed to achieve 50% inhibition of prolyl endopeptidase)” value against prolyl endopeptidase amounted to 0.7 ng/test tube.
